The values below come from patent publication US11173150B2, “Method for diagnosing, preventing, and treating neurological diseases” (United States Government As Represented By The Department …, priority 2010, dated 2021).

Values after ≈ are worked out from the molar mass of the structure shown. Like-named read-outs stand apart in the source and are kept apart here. Where only a bound is given, the exact number is not on record here.

In one data set the test system is Desulfovibrio. Nature of the data set: Antimicrobial susceptibility testing, CLSI serial two-fold plate dilution. In kind it is cell-based.
The conditions of data set [1]: cited from earlier work.
[2] abbreviates: Desulfovibrio, Desulfovibrio strain 8951, read-out: MIC.
The mark [3] stands for this setting: Desulfovibrio, Desulfovibrio strain 11232, read-out: MIC.
Setting [4] is: Desulfovibrio, Desulfovibrio strain 11437, read-out: MIC.
[5] abbreviates: Desulfovibrio, Desulfovibrio strain 11789, read-out: MIC.
Setting [6] is: Desulfovibrio, Desulfovibrio strain 11830, read-out: MIC.
Where [7] appears, read: Desulfovibrio, Desulfovibrio strain 12379, read-out: MIC.
Where [8] appears, read: Desulfovibrio, Desulfovibrio strain 13966, read-out: MIC.
Where [9] appears, read: Desulfovibrio, Desulfovibrio type strain 29098^T, read-out: MIC.

The term MIC denotes the lowest concentration that inhibits growth of the organism.

With `C[C@H]1[C@H](NC(=O)/C(=N\OC(C)(C)C(=O)O)c2csc(N)n2)C(=O)N1S(=O)(=O)O` [Aztreonam], the MIC with Desulfovibrio (Desulfovibrio, Desulfovibrio strain 4019) is 512 µg/mL (≈ 1180 µM); against Desulfovibrio (Desulfovibrio, Desulfovibrio strain 8381), 128 µg/mL (≈ 294 µM); in the data set with Desulfovibrio (setting [2]) it was 64 µg/mL (≈ 147 µM); in the data set with Desulfovibrio (Desulfovibrio, Desulfovibrio strain 9070), 512 µg/mL (≈ 1180 µM); with Desulfovibrio (setting [3]), 64 µg/mL (≈ 147 µM); in the data set with Desulfovibrio (setting [4]) it was 64 µg/mL (≈ 147 µM). Besides, the MIC in the data set with Desulfovibrio (setting [5]) came to 32 µg/mL (≈ 73.5 µM); in the data set with Desulfovibrio (setting [6]), 64 µg/mL (≈ 147 µM); with Desulfovibrio (setting [7]), 16 µg/mL (≈ 36.7 µM); with Desulfovibrio (setting [8]), 24 µg/mL (≈ 55.1 µM); in the data set on Desulfovibrio (setting [9]) it was 32 µg/mL (≈ 73.5 µM). For the same compound, in data set [1] (oral), the “Absorption when given by the oral route” value is listed as “virtually unabsorbed”.
For the compound `NC[C@H]1O[C@H](O[C@H]2[C@H](O)[C@@H](O[C@H]3O[C@H](CO)[C@@H](O)[C@H](N)[C@H]3O)[C@H](N)C[C@@H]2N)[C@H](O)[C@@H](O)[C@@H]1O` [Kanamycin], the MIC stood at 512 µg/mL (≈ 1060 µM) with Desulfovibrio (Desulfovibrio, Desulfovibrio strain 4019, read-out: MIC); 512 µg/mL (≈ 1060 µM) with Desulfovibrio (Desulfovibrio, Desulfovibrio strain 8236, read-out: MIC); 256 µg/mL (≈ 528 µM) with Desulfovibrio (Desulfovibrio, Desulfovibrio strain 8381, read-out: MIC); 256 µg/mL (≈ 528 µM) with Desulfovibrio (Desulfovibrio, Desulfovibrio strain 8907, read-out: MIC); 512 µg/mL (≈ 1060 µM) in the data set with Desulfovibrio (Desulfovibrio, Desulfovibrio strain 8933, read-out: MIC); 512 µg/mL (≈ 1060 µM) with Desulfovibrio (setting [2]). Also, the MIC came to 512 µg/mL (≈ 1060 µM) in the data set on Desulfovibrio (Desulfovibrio, Desulfovibrio strain 9070, read-out: MIC); 256 µg/mL (≈ 528 µM) in the data set on Desulfovibrio (Desulfovibrio, Desulfovibrio strain 9120, read-out: MIC); 256 µg/mL (≈ 528 µM) in the data set with Desulfovibrio (Desulfovibrio, Desulfovibrio strain 9706, read-out: MIC); 128 µg/mL (≈ 264 µM) in the data set with Desulfovibrio (Desulfovibrio, Desulfovibrio strain 9976, read-out: MIC); 256 µg/mL (≈ 528 µM) in the data set with Desulfovibrio (Desulfovibrio, Desulfovibrio strain 10831, read-out: MIC); 512 µg/mL (≈ 1060 µM) in the data set on Desulfovibrio (Desulfovibrio, Desulfovibrio strain 11081, read-out: MIC). The MIC was found to be 512 µg/mL (≈ 1060 µM) with Desulfovibrio (Desulfovibrio, Desulfovibrio strain 11094, read-out: MIC); 256 µg/mL (≈ 528 µM) with Desulfovibrio (setting [3]); 512 µg/mL (≈ 1060 µM) with Desulfovibrio (Desulfovibrio, Desulfovibrio strain 11346, read-out: MIC); 512 µg/mL (≈ 1060 µM) in the data set with Desulfovibrio (Desulfovibrio, Desulfovibrio strain 11378, read-out: MIC); 128 µg/mL (≈ 264 µM) with Desulfovibrio (setting [4]); 512 µg/mL (≈ 1060 µM) in the data set with Desulfovibrio (Desulfovibrio, Desulfovibrio strain 11568, read-out: MIC). Moreover, the MIC in the data set on Desulfovibrio (Desulfovibrio, Desulfovibrio strain 11623, read-out: MIC) amounted to 256 µg/mL (≈ 528 µM); in the data set with Desulfovibrio (Desulfovibrio, Desulfovibrio strain 11717, read-out: MIC), 512 µg/mL (≈ 1060 µM); in the data set with Desulfovibrio (setting [5]), 256 µg/mL (≈ 528 µM); in the data set with Desulfovibrio (setting [6]), 128 µg/mL (≈ 264 µM); in the data set with Desulfovibrio (Desulfovibrio, Desulfovibrio strain 11949, read-out: MIC), 128 µg/mL (≈ 264 µM); in the data set on Desulfovibrio (setting [7]), 512 µg/mL (≈ 1060 µM). For the same compound, the MIC in the data set with Desulfovibrio (setting [8]) was 512 µg/mL (≈ 1060 µM); with Desulfovibrio (Desulfovibrio, Desulfovibrio type strain 7757^T, read-out: MIC) it was 512 µg/mL (≈ 1060 µM); in the data set on Desulfovibrio (setting [9]), 128 µg/mL (≈ 264 µM). For the same compound, the “Absorption when given by the oral route” value in data set [1] (in vivo, po) is given as “virtually unabsorbed”.
On to Trimethoprim/sulfamethoxazole [TMX/Sul], for which the MIC was 256 µg/mL in the data set on Desulfovibrio (Desulfovibrio strain 8381); 512 µg/mL with Desulfovibrio (Desulfovibrio strain 8907); 256 µg/mL with Desulfovibrio (Desulfovibrio strain 8933); 256 µg/mL against Desulfovibrio (Desulfovibrio strain 8951); over 512 µg/mL against Desulfovibrio (Desulfovibrio strain 9070); 256 µg/mL in the data set on Desulfovibrio (Desulfovibrio strain 9120). The minimal inhibitory concentration (MIC) is 256 µg/mL in the data set with Desulfovibrio (Desulfovibrio strain 9706); 256 µg/mL against Desulfovibrio (Desulfovibrio strain 9976); 128 µg/mL in the data set on Desulfovibrio (Desulfovibrio strain 11232); 512 µg/mL in the data set on Desulfovibrio (Desulfovibrio strain 11346); 4 µg/mL in the data set with Desulfovibrio (Desulfovibrio strain 11437); over 512 µg/mL in the data set with Desulfovibrio (Desulfovibrio strain 11568). In addition, the minimal inhibitory concentration (MIC) was 512 µg/mL in the data set with Desulfovibrio (Desulfovibrio strain 11623); 512 µg/mL with Desulfovibrio (Desulfovibrio strain 11949); 512 µg/mL in the data set with Desulfovibrio (Desulfovibrio strain 13966); over 512 µg/mL against Desulfovibrio (Desulfovibrio type strain 7757^T); 256 µg/mL against Desulfovibrio (Desulfovibrio type strain 29098^T).
